The supplement of paper PMC11451515

Tested on: P12-Ichikawa
Experiment: cell viability relative to DMSO control; higher = less cytotoxic
Conditions: 48 h
In short: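 Viability values are per-plate percentages of DMSO wells, with background from cell-free wells. Library compounds in DMSO were pin-dosed, in an 11-point threefold series from 47 μM to 0.79 nM, onto NOMO1 or SEM (500 cells/well) or P12-Ichikawa (1000 cells/well) leukemia cells in 1536-well plates (5 μl). Those cells had been adapted for at least four passages in each medium, and CellTiter-Glo One luminescence was read after 48 h at 37°C.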

[1] = HPLM + 10% dialyzed FBS, 0.000781 µM
[2] = HPLM + 10% dialyzed FBS, 0.00234 µM
[3] = HPLM + 10% dialyzed FBS, 0.00702 µM
[4] = HPLM + 10% dialyzed FBS, 0.0211 µM
[5] = HPLM + 10% dialyzed FBS, 0.0632 µM
[6] = HPLM + 10% dialyzed FBS, 0.19 µM
[7] = HPLM + 10% dialyzed FBS, 0.569 µM
[8] = HPLM + 10% dialyzed FBS, 1.71 µM
[9] = HPLM + 10% dialyzed FBS, 5.12 µM
[10] = HPLM + 10% dialyzed FBS, 15.4 µM
[11] = HPLM + 10% dialyzed FBS, 46.1 µM
[12] = RPMI 5 mM glucose + 10% FBS, 0.000781 µM
[13] = RPMI 5 mM glucose + 10% FBS, 0.00234 µM
[14] = RPMI 5 mM glucose + 10% FBS, 0.00702 µM
[15] = RPMI 5 mM glucose + 10% FBS, 0.0211 µM
[16] = RPMI 5 mM glucose + 10% FBS, 0.0632 µM
[17] = RPMI 5 mM glucose + 10% FBS, 0.19 µM
[18] = RPMI 5 mM glucose + 10% FBS, 0.569 µM
[19] = RPMI 5 mM glucose + 10% FBS, 1.71 µM
[20] = RPMI 5 mM glucose + 10% FBS, 5.12 µM
[21] = RPMI 5 mM glucose + 10% FBS, 15.4 µM
[22] = RPMI 5 mM glucose + 10% FBS, 46.1 µM
[23] = RPMI 5 mM glucose + 10% dialyzed FBS, 0.000781 µM
[24] = RPMI 5 mM glucose + 10% dialyzed FBS, 0.00234 µM
[25] = RPMI 5 mM glucose + 10% dialyzed FBS, 0.00702 µM
[26] = RPMI 5 mM glucose + 10% dialyzed FBS, 0.0211 µM
[27] = RPMI 5 mM glucose + 10% dialyzed FBS, 0.0632 µM
[28] = RPMI 5 mM glucose + 10% dialyzed FBS, 0.19 µM
[29] = RPMI 5 mM glucose + 10% dialyzed FBS, 0.569 µM
[30] = RPMI 5 mM glucose + 10% dialyzed FBS, 1.71 µM
[31] = RPMI 5 mM glucose + 10% dialyzed FBS, 5.12 µM
[32] = RPMI 5 mM glucose + 10% dialyzed FBS, 15.4 µM
[33] = RPMI 5 mM glucose + 10% dialyzed FBS, 46.1 µM

Row | Structure (SMILES) | cell viability [1] | cell viability [2] | cell viability [3] | cell viability [4] | cell viability [5] | cell viability [6] | cell viability [7] | cell viability [8] | cell viability [9] | cell viability [10] | cell viability [11] | cell viability [12] | cell viability [13] | cell viability [14] | cell viability [15] | cell viability [16] | cell viability [17] | cell viability [18] | cell viability [19] | cell viability [20] | cell viability [21] | cell viability [22] | cell viability [23] | cell viability [24] | cell viability [25] | cell viability [26] | cell viability [27] | cell viability [28] | cell viability [29] | cell viability [30] | cell viability [31] | cell viability [32] | cell viability [33]
1 | O=C(O)C(=O)Nc1cccc(-c2nnn[nH]2)c1 | 101% | 94.9% | 103% | 108% | 108% | 106% | 105% | 106% | 112% | 112% | 111% | 109% | 111% | 106% | 112% | 126% | 107% | 113% | 114% | 108% | 116% | 107% | 100% | 105% | 106% | 108% | 107% | 106% | 100% | 105% | 98.4% | 105% | 102%
2 | Cc1ccc([S+](=O)([O-])NC(=O)NN2CC3CCCC3C2)cc1 (centres undefined) | 107% | 110% | 110% | 114% | 112% | 106% | 100% | 80.8% | 66.4% | 44.5% | 22.7% | 110% | 108% | 103% | 102% | 113% | 108% | 97.7% | 70.5% | 57.3% | 34.7% | 20.1% | 107% | 109% | 116% | 106% | 112% | 102% | 93.4% | 72.4% | 51.4% | 36.3% | 23.9%
3 | C=C1C(=O)O[C@@H]2[C@H]3O[C@]3(C)CC/C=C(\C)CC[C@@H]12 | 106% | 104% | 114% | 114% | 119% | 124% | 122% | 79.6% | 5.39% | 2.97% | 2.95% | 103% | 109% | 117% | 117% | 127% | 127% | 125% | 101% | 13.5% | 3.52% | 2.86% | 105% | 112% | 118% | 125% | 127% | 123% | 121% | 91.8% | 5.63% | 2.98% | 2.57%
4 | CCNC(=O)c1noc(-c2cc(C(C)C)c(O)cc2O)c1-c1ccc(CN2CCOCC2)cc1 | 103% | 111% | 112% | 113% | 109% | 52% | 53.9% | 50.1% | 52% | 45.8% | 44.2% | 111% | 116% | 115% | 117% | 97.4% | 41% | 43.5% | 39.6% | 47.2% | 40.1% | 35.8% | 96.9% | 112% | 108% | 115% | 100% | 42.1% | 43.8% | 41.1% | 44.9% | 39.4% | 37.3%
5 | OCCN1CCN(CCCN2c3ccccc3Sc3ccc(C(F)(F)F)cc32)CC1 | 95.4% | 98.3% | 103% | 109% | 110% | 108% | 73.3% | 113% | 74.2% | 18.2% | 8.87% | 107% | 108% | 109% | 123% | 109% | 114% | 87.8% | 107% | 74.2% | 36.6% | 9.41% | 99.3% | 99.7% | 111% | 110% | 107% | 107% | 96.4% | 104% | 78.7% | 59.8% | 12.7%
6 | CN1CCN(CC1)C/2=N/C3=CC=CC=C3NC4=C2C=C(C)S4 | 98% | 93.9% | 105% | 98.5% | 98.8% | 104% | 107% | 96.9% | 87.4% | 97.4% | 91.1% | 92.8% | 104% | 104% | 102% | 102% | 105% | 102% | 101% | 72.2% | 102% | 84.8% | 94.1% | 99.9% | 97.9% | 96.8% | 98.3% | 99.9% | 99.1% | 91.4% | 92.1% | 93% | 91.9%
7 | COC(=O)Nc1nc2cc(Sc3ccccc3)ccc2[nH]1 | 124% | 115% | 119% | 108% | 112% | 114% | 111% | 96% | 19.5% | 25.2% | 31.8% | 112% | 113% | 118% | 111% | 113% | 124% | 115% | 97.6% | 16.8% | 29.3% | 28.7% | 101% | 109% | 120% | 114% | 113% | 111% | 102% | 90% | 24.5% | 30.4% | 35.5%
8 | CO[C@H]1C[C@H]2OC[C@@]2(OC(C)=O)[C@H]3[C@H](OC(=O)C4=CC=CC=C4)[C@]5(O)C[C@H](OC(=O)[C@H](O)[C@@H](NC(=O)OC(C)(C)C)C6=CC=CC=C6)/C(=C(/[C@@H](OC)C(=O)[C@]13C)C5(C)C)C | 78.2% | 87.6% | 29.3% | 28.4% | 19% | 18.9% | 18.8% | 20.1% | 12.1% | 13.4% | 7.21% | 69.9% | 81.6% | 70.8% | 30.4% | 11.6% | 15.3% | 15.2% | 15.9% | 10.5% | 10.6% | 10.8% | 73.7% | 71.1% | 67.9% | 34.5% | 28% | 27.7% | 24.2% | 26.1% | 20.2% | 21% | 11.9%
9 | CN1CCC(=C2c3ccccc3CCc3sccc32)CC1 | 110% | 108% | 111% | 106% | 111% | 118% | 112% | 111% | 114% | 111% | 90.8% | 108% | 116% | 109% | 117% | 119% | 124% | 132% | 110% | 120% | 116% | 89.7% | 101% | 107% | 113% | 104% | 109% | 108% | 115% | 114% | 115% | 107% | 82.4%
10 | Cc1ccc(C)c(OCCCC(C)(C)C(=O)O)c1 | 87% | 92.4% | 90.8% | 95% | 101% | 97.9% | 93.2% | 102% | 106% | 98% | 92.1% | 90% | 86.9% | 84.5% | 90.7% | 91.1% | 92.9% | 89% | 91.7% | 84.1% | 92.4% | 97.1% | 81.2% | 82.9% | 84.3% | 92.6% | 84.5% | 87.7% | 85.5% | 86.6% | 88.8% | 88% | 90%
11 | CON(C)C(=O)N1\N=C(/S[C@]1(CCCN)C2=CC=CC=C2)C3=CC(=CC=C3F)F | 46% | 13.4% | 12.4% | 12.8% | 13% | 12.8% | 14.2% | 12.1% | 12.7% | 11.2% | 13.1% | 12% | 17.2% | 17.5% | 16.2% | 16.8% | 17.7% | 16.6% | 13.6% | 14.2% | 12.2% | 11.2% | 24.8% | 28% | 21.3% | 21.4% | 22.5% | 24.6% | 21% | 22.4% | 19.1% | 18.3% | 19.9%
12 | CNC(=O)c1cc(Oc2ccc(NC(=O)Nc3ccc(Cl)c(C(F)(F)F)c3)c(F)c2)ccn1 | 86.4% | 89.8% | 93.8% | 91.3% | 92% | 95.4% | 87.8% | 91% | 88.3% | 81.4% | 67.7% | 85.4% | 92.6% | 87.8% | 97.8% | 86.2% | 95.6% | 94.2% | 83.6% | 87.1% | 86.8% | 65.5% | 91.7% | 89.9% | 90.5% | 98.6% | 94.1% | 91.5% | 84.9% | 90.3% | 84.7% | 89.1% | 73.5%
13 | O=C(O)CCCc1ccc(N(CCCl)CCCl)cc1 | 117% | 116% | 118% | 122% | 125% | 122% | 125% | 126% | 123% | 123% | 20.4% |  |  |  |  |  |  |  |  |  |  |  |  |  |  |  |  |  |  |  |  |  | 
14 | CN(C)[C@H]\1[C@@H]2[C@@H](O)[C@H]3\C(=C(O)/[C@]2(O)C(=O)\C(=C1O)C(N)=O)C(=O)C4=C(C=CC=C4O)[C@@]3(C)O |  |  |  |  |  |  |  |  |  |  |  | 130% | 123% | 125% | 127% | 127% | 131% | 130% | 106% | 96.1% | 128% | 116% |  |  |  |  |  |  |  |  |  |  | 
15 | O=C(N[C@H]1CN2CCC1CC2)c1ccc(Cl)cc1 | 99.2% | 107% | 104% | 110% | 110% | 116% | 114% | 114% | 116% | 109% | 99.2% | 110% | 106% | 114% | 103% | 108% | 111% | 114% | 110% | 106% | 101% | 99.9% | 98.2% | 100% | 104% | 114% | 118% | 116% | 113% | 114% | 102% | 104% | 92.4%
16 | N#C[C@@H]1C[C@@H]2C[C@@H]2N1C(=O)[C@@H](N)C12CC3CC(CC(O)(C3)C1)C2 | 121% | 123% | 115% | 122% | 122% | 114% | 122% | 110% | 109% | 110% | 108% | 132% | 123% | 120% | 120% | 116% | 123% | 128% | 107% | 111% | 110% | 97.6% | 122% | 128% | 121% | 118% | 124% | 114% | 121% | 123% | 112% | 111% | 108%
